Experimental data taken from patent publication US20240254118A1, “PRMT5 INHIBITORS AND USES THEREOF” (Gilead Sciences, Inc., priority 2022, published 2024).

Key:
[1] = system: SDMA signal (PRMT5 inhibition) in HCT116 MTAP-deleted cells; test: Symmetric di-methyl arginine image-based high content screen assay (SDMA assay), HCT116 MTAP-deleted; type: cell-based; details: SDMA assay; for EC50: Homo sapiens, HCT-116, 72 h, 3 days of treatment, cell line not given, taken as HCT116 MTAP-deleted, read-out: EC50 (SDMA assay); for EC50 selectivity (SDMA assay): taken as HCT116 WT versus MTAP-deleted
Procedure, shortened: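 Read-out: per-cell mean SDMA immunofluorescence (Alexa Fluor 488 secondary), cells segmented by DAPI on a high-content imager. Compound exposure in HCT116 MTAP-deleted cells lasted until fixation on Day 3; overnight 4° C primary anti-SDMA antibody staining.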

[2] = system: HCT116 MTAP-deleted cells; test: Cell viability assay (CellTiter-Glo, 7 days), HCT116 MTAP-deleted; details: Homo sapiens, HCT-116, 168 h

EC50 [1] [nM] | EC50 selectivity (SDMA assay) [1] | SMILES | CC50 [2] [nM]
< 1 | 456 | CN(C(=O)C12CC(C1)C2)N(Cc1ccc(Cl)cn1)C(=O)c1ccc2nc(N)c3cnn(C)c3c2c1 [Example 140, 4-amino-N′-(bicyclo[1.1.1]pentane-1-carbonyl)-N-((5-chloropyridin-2-yl)methyl)-N′,1-dimethyl-1H-pyrazolo[4,3-c]quinoline-8-carbohydrazide] | < 100
< 1 | 16 | CN(C(=O)C1CC1)N(Cc1ccc(C(F)(F)F)cn1)C(=O)c1cc2c(cc1F)nc(N)c1cnn(C)c12 [Example 146, 4-amino-N′-(cyclopropanecarbonyl)-7-fluoro-N′,1-dimethyl-N-[[5-(trifluoromethyl)-2-pyridyl]methyl]pyrazolo[4,3-c]quinoline-8-carbohydrazide] | < 100
< 1 | 16 | CC(=O)N(c1ccccn1)N(Cc1ccc(C(F)(F)F)cn1)C(=O)c1ccc2nc(N)c3cnn(C)c3c2c1 [Example 147, N′-acetyl-4-amino-1-methyl-N′-(2-pyridyl)-N-[[5-(trifluoromethyl)-2-pyridyl]methyl]pyrazolo[4,3-c]quinoline-8-carbohydrazide] | < 100
< 1 | 525 | Cn1ncc2c3cc(C(=O)N(Cc4ccc(C(F)(F)F)cn4)N4CCCC4=O)ccc3nc(N)c21 [Example 151, 4-amino-3-methyl-N-(2-oxopyrrolidin-1-yl)-N-((5-(trifluoromethyl)pyridin-2-yl)methyl)-3H-pyrazolo[3,4-c]quinoline-8-carboxamide] | < 100
1 to 5 | 128 | CC(=O)N(C)N(Cc1ccc(C(F)(F)F)cn1)C(=O)c1ccc2nc(N)c3c(cnn3C)c2c1 [Example 152, N′-acetyl-4-amino-N′,3-dimethyl-N-((5-(trifluoromethyl)pyridin-2-yl)methyl)-3H-pyrazolo[3,4-c]quinoline-8-carbohydrazide] | 100 to 1000
1 to 5 | 54 | CC(=O)N(C)N(Cc1ccc(C(F)(F)F)cc1F)C(=O)c1ccc2nc(N)c3c(cnn3C)c2c1 [Example 153, N′-acetyl-4-amino-N-(2-fluoro-4-(trifluoromethyl)benzyl)-N′,3-dimethyl-3H-pyrazolo[3,4-c]quinoline-8-carbohydrazide] | < 100
< 1 | 94 | CN(C(=O)C1CC1)N(Cc1ccc(Cl)cc1F)C(=O)c1ccc2nc(N)c3cnn(C)c3c2c1 [Example 155, 4-amino-N-(4-chloro-2-fluorobenzyl)-N′-(cyclopropanecarbonyl)-N′,1-dimethyl-1H-pyrazolo[4,3-c]quinoline-8-carbohydrazide] | < 100
< 1 | 34 | CN(C(=O)N1CC(F)C1)N(Cc1ccc(C(F)(F)F)cn1)C(=O)c1ccc2nc(N)c3cnn(C)c3c2c1 [Example 156, 4-amino-N′-(3-fluoroazetidine-1-carbonyl)-N′,1-dimethyl-N-((5-(trifluoromethyl)pyridin-2-yl)methyl)-1H-pyrazolo[4,3-c]quinoline-8-carbohydrazide] | < 100
< 1 | 54 | CN(C(=O)N1CC(F)(F)C1)N(Cc1ccc(C(F)(F)F)cn1)C(=O)c1ccc2nc(N)c3cnn(C)c3c2c1 [Example 157, 4-amino-N′-(3,3-difluoroazetidine-1-carbonyl)-N′,1-dimethyl-N-((5-(trifluoromethyl)pyridin-2-yl)methyl)-1H-pyrazolo[4,3-c]quinoline-8-carbohydrazide] | < 100
< 1 | 4 | CN(C(=O)c1nccn1C)N(Cc1ccc(C(F)(F)F)cn1)C(=O)c1ccc2nc(N)c3cnn(C)c3c2c1 [Example 158, 4-amino-N′,1-dimethyl-N′-(1-methyl-1H-imidazole-2-carbonyl)-N-((5-(trifluoromethyl)pyridin-2-yl)methyl)-1H-pyrazolo[4,3-c]quinoline-8-carbohydrazide] | < 100
1 to 5 | 10 | CNC(=O)c1ccc(-c2ccc(CN(C(=O)c3ccc4nc(N)c5cnn(C)c5c4c3)N3CCCCC3=O)nc2)cn1 [Example 160, 4-amino-1-methyl-N-((6′-(methylcarbamoyl)-[3,3′-bipyridin]-6-yl)methyl)-N-(2-oxopiperidin-1-yl)-1H-pyrazolo[4,3-c]quinoline-8-carboxamide] | < 100
< 1 | 127 | CN(C(=O)C1CCC1)N(Cc1ccc(C(F)(F)F)nn1)C(=O)c1cc2c(cc1F)nc(N)c1cnn(C)c12 [Example 162, 4-amino-N′-(cyclobutanecarbonyl)-7-fluoro-N′,1-dimethyl-N-((6-(trifluoromethyl)pyridazin-3-yl)methyl)-1H-pyrazolo[4,3-c]quinoline-8-carbohydrazide] | < 100

The remaining lines, values behind:

SMILES | EC50 [1] [nM] | EC50 selectivity (SDMA assay) [1] | CC50 [2] [nM]
Cn1ncc2c(N)nc3cc(Cl)c(C(=O)N(Cc4ccc(C(F)(F)F)cn4)N4CCCC4=O)cc3c21 [Example 141, 4-amino-7-chloro-1-methyl-N-(2-oxopyrrolidin-1-yl)-N-[[5-(trifluoromethyl)-2-pyridyl]methyl]pyrazolo[4,3-c]quinoline-8-carboxamide] | 1 to 5 | 58 | < 100
Cn1ncc2c(N)nc3cc(F)c(C(=O)N(Cc4ccc(C(F)(F)F)cn4)N4CCOCC4)cc3c21 [Example 142, 4-amino-7-fluoro-1-methyl-N-morpholino-N-((5-(trifluoromethyl)pyridin-2-yl)methyl)-1H-pyrazolo[4,3-c]quinoline-8-carboxamide] | < 1 | 32 | < 100
Cn1ncc2c(N)nc3cc(Cl)c(C(=O)N(Cc4ccc(C(F)(F)F)cn4)N4CCCOC4=O)cc3c21 [Example 143, 4-amino-7-chloro-1-methyl-N-(2-oxo-1,3-oxazinan-3-yl)-N-[[5-(trifluoromethyl)-2-pyridyl]methyl]pyrazolo[4,3-c]quinoline-8-carboxamide] | 1 to 5 | 67 | < 100
Cn1ncc2c(N)nc3cc(F)c(C(=O)N(Cc4ccc(C(F)(F)F)cn4)N4CCCOC4=O)cc3c21 [Example 144, 4-amino-7-fluoro-1-methyl-N-(2-oxo-1,3-oxazinan-3-yl)-N-[[5-(trifluoromethyl)-2-pyridyl]methyl]pyrazolo[4,3-c]quinoline-8-carboxamide] | 1 to 5 | 43 | < 100
Cn1ncc2c(N)nc3cc(F)c(C(=O)N(Cc4ccc(C(F)(F)F)cn4)N4CCOC4=O)cc3c21 [Example 145, 4-amino-7-fluoro-1-methyl-N-(2-oxooxazolidin-3-yl)-N-[[5-(trifluoromethyl)-2-pyridyl]methyl]pyrazolo[4,3-c]quinoline-8-carboxamide] | < 1 | 45 | < 100
Cn1ncc2c(N)nc3cc(Cl)c(C(=O)N(Cc4ccc(C(F)(F)F)cn4)N4CCCCC4=O)cc3c21 [Example 148, 4-amino-7-chloro-1-methyl-N-(2-oxopiperidin-1-yl)-N-((5-(trifluoromethyl)pyridin-2-yl)methyl)-1H-pyrazolo[4,3-c]quinoline-8-carboxamide] | 1 to 5 | 66 | < 100
Cn1ncc2c(N)nc3cc(F)c(C(=O)N(Cc4ccc(C(F)(F)F)cn4)N4CCCCC4=O)cc3c21 [Example 149, 4-amino-7-fluoro-1-methyl-N-(2-oxopiperidin-1-yl)-N-((5-(trifluoromethyl)pyridin-2-yl)methyl)-1H-pyrazolo[4,3-c]quinoline-8-carboxamide] | 1 to 5 | 18 | < 100
Cn1ncc2c3cc(C(=O)N(Cc4ccc(C(F)(F)F)cn4)N4CCOC4=O)ccc3nc(N)c21 [Example 150, 4-amino-3-methyl-N-(2-oxooxazolidin-3-yl)-N-((5-(trifluoromethyl)pyridin-2-yl)methyl)-3H-pyrazolo[3,4-c]quinoline-8-carboxamide] | 1 to 5 | 138 | < 100
CCN(C(C)=O)N(Cc1ccc(OC(F)F)cc1F)C(=O)c1cc2c(cc1F)nc(N)c1cnn(C)c12 [Example 154, N′-acetyl-4-amino-N-(4-(difluoromethoxy)-2-fluorobenzyl)-N′-ethyl-7-fluoro-1-methyl-1H-pyrazolo[4,3-c]quinoline-8-carbohydrazide] | < 1 | 45 | < 100
Cn1ncc2c(N)nc3ccc(C(=O)N(Cc4ccc(C(F)(F)F)cn4)N4CCC5(CC5)C4=O)cc3c21 [Example 159, 4-amino-1-methyl-N-(4-oxo-5-azaspiro[2.4]heptan-5-yl)-N-((5-(trifluoromethyl)pyridin-2-yl)methyl)-1H-pyrazolo[4,3-c]quinoline-8-carboxamide] | < 1 | 69 | < 100
Cn1ncc2c(N)nc3ccc(C(=O)N(Cc4ccc(-c5cnn(C(F)(F)F)c5)cn4)N4CCCCC4=O)cc3c21 [Example 161, 4-amino-1-methyl-N-(2-oxopiperidin-1-yl)-N-((5-(1-(trifluoromethyl)-1H-pyrazol-4-yl)pyridin-2-yl)methyl)-1H-pyrazolo[4,3-c]quinoline-8-carboxamide] | 1 to 5 | 51 | < 100
